Paper PMC12410356 (International Journal for Parasitology: Drugs and Drug …, 2025)

The compounds below were run on E. multilocularis metacestode vesicles (assay: Phosphoglucose isomerase (PGI) release assay (damage-marker release) on metacestode vesicles). Conditions: confirmation screen, 10 μM, triplicates, mean, 5 days.
Type: cell-based, Echinococcus multilocularis

| SMILES | PGI d5 (relative PGI release) [%] |
| --- | --- |
| O=C(Nc1cccc(C2=NCCN2)c1)c1ccc(-c2ccc(C(=O)Nc3cccc(C4=NCCN4)c3)cc2)cc1 [MMV1580853] | -0.08 |

Same assay, conditions: confirmation screen, 10 μM, triplicates, mean, 12 days

| SMILES | PGI d12 (relative PGI release) [%] |
| --- | --- |
| O=C(Nc1cccc(C2=NCCN2)c1)c1ccc(-c2ccc(C(=O)Nc3cccc(C4=NCCN4)c3)cc2)cc1 [MMV1580853] | 7.37 |

Same assay, conditions: overview screen, 10 μM, singlets, 5 days, relative to 0.1 % Triton X-100, DMSO subtracted

| SMILES | PGI d5 (relative PGI release) [%] |
| --- | --- |
| O=C(CSc1nnc(Br)n1-c1ccc(C2CC2)c2ccccc12)Nc1ccc(C(=O)O)cc1Cl [MMV1782213] | 1.533 |
| CC(C)(C)NC(=O)[C@@H]1C[C@@H]2CCCC[C@@H]2CN1C[C@@H](O)[C@H](Cc1ccccc1)NC(=O)[C@H](CC(N)=O)NC(=O)c1ccc2ccccc2n1 [MMV637879] | -0.1506 |
| NC(=O)c1[nH]c2ccc(S(N)(=O)=O)cc2c1-c1ccccc1 [MMV1581556] | 1.2 |
| O=C1c2cccc3cccc(c23)C(=O)N1CC1CO1 (stereo not drawn) [MMV1634360] | -2.544 |
| N[C@H]1CCC[C@H]1C(=O)O [MMV1634361] | 0.2611 |
| CC(C)c1ccc(COc2cccc(-c3cc([S+](C)[O-])c(C#N)c(=O)[nH]3)c2)cc1 (stereo not drawn) [MMV1582497] | 3.781 |
| CC(C)c1cc2c(cc1S(=O)(=O)O)[C@@]1(C)CCC[C@@](C)(C(=O)O)[C@@H]1CC2 [MMV1633675] | -5.75 |
| CC1(C)Cc2c(C#N)c(SCCc3ccccc3)nc(N3CCOCC3)c2CO1 [MMV1549626] | -2.265 |
| C=CCN(C(=O)OCc1ccc([N+](=O)[O-])cc1)C1CCN(CC[C@](C)(CN(C)S(=O)(=O)c2ccccc2)c2ccccc2)CC1 [MMV1782214] | 0.9992 |
| CCn1cc(C(=O)O)c(=O)c2cc(F)c(N3CCNC(C)C3)c(F)c21.Cl (stereo not drawn) [MMV002350] | 0.8503 |
| O=C(N[C@H](CCS)C(=O)N[C@H](Cc1ccccc1)C(=O)O)c1cc2ccccc2[nH]1 [MMV1581557] | -0.9852 |
| COc1cc(Cc2cnc(N)nc2N)c2c(c1OC)OC(C1CC1)C=C2 (stereo not drawn) [MMV1613563] | -0.539 |
| O=C(NCc1ccc2c3c(cccc13)C(=O)N2)c1cccs1 [MMV1341773] | -1.3816 |
| NC(=O)c1cnccn1 [MMV003249] | 1.909 |
| OB1OCc2c1ccc(Cl)c2F [MMV1782226] | -2.405 |
| NC(=O)C(c1ccccc1)(c1ccccc1)[C@H]1CCCN(CCc2ccc3c(c2)CCO3)C1 [MMV1782412] | 1.533 |
| OCCCCn1cnc2c(O)nc(NCc3ccc(Cl)c(Cl)c3)nc21 [MMV1593542] | -1.805 |
| Cc1cc(C)n2nc(C(=O)NS(=O)(=O)c3c(C)cccc3OC(F)(F)F)nc2n1 [MMV1782402] | -1.59 |
| Cn1cc(NC(=O)c2cc(NC(=O)c3ccc(/C=C/c4cnc5ccccc5c4)cc3)cn2C)cc1C(=O)NCCN1CCOCC1 [MMV1634391] | -0.2305 |
| Cc1onc(-c2ccccc2)c1-c1ccc(S(N)(=O)=O)cc1 [MMV002260] | 0.1005 |
| O=C(Nc1cccc(C2=NCCN2)c1)c1ccc(-c2ccc(C(=O)Nc3cccc(C4=NCCN4)c3)cc2)cc1 [MMV1580853] | 0.237 |

Same assay, conditions: overview screen, 10 μM, singlets, 12 days, relative to 0.1 % Triton X-100, DMSO subtracted

| SMILES | PGI d12 (relative PGI release) [%] |
| --- | --- |
| O=C(CSc1nnc(Br)n1-c1ccc(C2CC2)c2ccccc12)Nc1ccc(C(=O)O)cc1Cl [MMV1782213] | -0.7445 |
| CC(C)(C)NC(=O)[C@@H]1C[C@@H]2CCCC[C@@H]2CN1C[C@@H](O)[C@H](Cc1ccccc1)NC(=O)[C@H](CC(N)=O)NC(=O)c1ccc2ccccc2n1 [MMV637879] | -17.9883 |
| NC(=O)c1[nH]c2ccc(S(N)(=O)=O)cc2c1-c1ccccc1 [MMV1581556] | 0.8963 |
| O=C1c2cccc3cccc(c23)C(=O)N1CC1CO1 (stereo not drawn) [MMV1634360] | 17.7299 |
| N[C@H]1CCC[C@H]1C(=O)O [MMV1634361] | 0.2526 |
| CC(C)c1ccc(COc2cccc(-c3cc([S+](C)[O-])c(C#N)c(=O)[nH]3)c2)cc1 (stereo not drawn) [MMV1582497] | -9.364 |
| CC(C)c1cc2c(cc1S(=O)(=O)O)[C@@]1(C)CCC[C@@](C)(C(=O)O)[C@@H]1CC2 [MMV1633675] | -3.32 |
| CC1(C)Cc2c(C#N)c(SCCc3ccccc3)nc(N3CCOCC3)c2CO1 [MMV1549626] | -14.2052 |
| C=CCN(C(=O)OCc1ccc([N+](=O)[O-])cc1)C1CCN(CC[C@](C)(CN(C)S(=O)(=O)c2ccccc2)c2ccccc2)CC1 [MMV1782214] | 3.53 |
| CCn1cc(C(=O)O)c(=O)c2cc(F)c(N3CCNC(C)C3)c(F)c21.Cl (stereo not drawn) [MMV002350] | 0.3517 |
| O=C(N[C@H](CCS)C(=O)N[C@H](Cc1ccccc1)C(=O)O)c1cc2ccccc2[nH]1 [MMV1581557] | -10.8141 |
| COc1cc(Cc2cnc(N)nc2N)c2c(c1OC)OC(C1CC1)C=C2 (stereo not drawn) [MMV1613563] | -1.956 |
| O=C(NCc1ccc2c3c(cccc13)C(=O)N2)c1cccs1 [MMV1341773] | -12.533 |
| NC(=O)c1cnccn1 [MMV003249] | -3.346 |
| OB1OCc2c1ccc(Cl)c2F [MMV1782226] | -26.1495 |
| NC(=O)C(c1ccccc1)(c1ccccc1)[C@H]1CCCN(CCc2ccc3c(c2)CCO3)C1 [MMV1782412] | 2.087 |
| OCCCCn1cnc2c(O)nc(NCc3ccc(Cl)c(Cl)c3)nc21 [MMV1593542] | -12.5973 |
| Cc1cc(C)n2nc(C(=O)NS(=O)(=O)c3c(C)cccc3OC(F)(F)F)nc2n1 [MMV1782402] | 1.998 |
| Cn1cc(NC(=O)c2cc(NC(=O)c3ccc(/C=C/c4cnc5ccccc5c4)cc3)cn2C)cc1C(=O)NCCN1CCOCC1 [MMV1634391] | 21.1965 |
| Cc1onc(-c2ccccc2)c1-c1ccc(S(N)(=O)=O)cc1 [MMV002260] | -4.614 |
| O=C(Nc1cccc(C2=NCCN2)c1)c1ccc(-c2ccc(C(=O)Nc3cccc(C4=NCCN4)c3)cc2)cc1 [MMV1580853] | 89.997 |

These compounds were tested on E. multilocularis metacestode vesicles (assay: Metacestode vesicle viability assay (ATP, CellTiter-Glo)). Conditions: 10 µM.
Type: cell-based, Echinococcus multilocularis
Method: Viability was assessed after 12 days using the same metacestode vesicles as for the PGI release assay. Triton X-100 was added to each well to a final concentration of 0.1 %. Subsequently the metacestode vesicles were broken mechanically and 50 μL of the supernatant was mixed with 50 μL of CellTiter-Glo® buffer (Promega, Dübendorf, Switzerland). Measurements were performed on a HIDEX Sense microplate reader.

| SMILES | Viability d12 (relative viability) [%] |
| --- | --- |
| CC(C)(C)NC(=O)[C@@H]1C[C@@H]2CCCC[C@@H]2CN1C[C@@H](O)[C@H](Cc1ccccc1)NC(=O)[C@H](CC(N)=O)NC(=O)c1ccc2ccccc2n1 [MMV637879] | 108.384 |
| CCn1cc(C(=O)O)c(=O)c2cc(F)c(N3CCNC(C)C3)c(F)c21.Cl (stereo not drawn) [MMV002350] | 92.559 |

Same assay, conditions: confirmation screen, 10 μM, triplicates, mean, 12 days

| SMILES | Viability d12 (relative viability) [%] |
| --- | --- |
| O=C(Nc1cccc(C2=NCCN2)c1)c1ccc(-c2ccc(C(=O)Nc3cccc(C4=NCCN4)c3)cc2)cc1 [MMV1580853] | 134.53 |

Same assay, conditions: overview screen, 10 μM, singlets, 12 days, relative to DMSO control

| SMILES | Viability d12 (relative viability) [%] |
| --- | --- |
| O=C(CSc1nnc(Br)n1-c1ccc(C2CC2)c2ccccc12)Nc1ccc(C(=O)O)cc1Cl [MMV1782213] | 116.37 |
| NC(=O)c1[nH]c2ccc(S(N)(=O)=O)cc2c1-c1ccccc1 [MMV1581556] | 154.578 |
| O=C1c2cccc3cccc(c23)C(=O)N1CC1CO1 (stereo not drawn) [MMV1634360] | 25.8841 |
| N[C@H]1CCC[C@H]1C(=O)O [MMV1634361] | 78.6856 |
| CC(C)c1ccc(COc2cccc(-c3cc([S+](C)[O-])c(C#N)c(=O)[nH]3)c2)cc1 (stereo not drawn) [MMV1582497] | 210.079 |
| CC(C)c1cc2c(cc1S(=O)(=O)O)[C@@]1(C)CCC[C@@](C)(C(=O)O)[C@@H]1CC2 [MMV1633675] | 100.907 |
| CC1(C)Cc2c(C#N)c(SCCc3ccccc3)nc(N3CCOCC3)c2CO1 [MMV1549626] | 93.3497 |
| C=CCN(C(=O)OCc1ccc([N+](=O)[O-])cc1)C1CCN(CC[C@](C)(CN(C)S(=O)(=O)c2ccccc2)c2ccccc2)CC1 [MMV1782214] | 76.726 |
| O=C(N[C@H](CCS)C(=O)N[C@H](Cc1ccccc1)C(=O)O)c1cc2ccccc2[nH]1 [MMV1581557] | 26.3851 |
| COc1cc(Cc2cnc(N)nc2N)c2c(c1OC)OC(C1CC1)C=C2 (stereo not drawn) [MMV1613563] | 145.38 |
| O=C(NCc1ccc2c3c(cccc13)C(=O)N2)c1cccs1 [MMV1341773] | 18.2024 |
| NC(=O)c1cnccn1 [MMV003249] | 123.464 |
| OB1OCc2c1ccc(Cl)c2F [MMV1782226] | 39.4941 |
| NC(=O)C(c1ccccc1)(c1ccccc1)[C@H]1CCCN(CCc2ccc3c(c2)CCO3)C1 [MMV1782412] | 220.792 |
| OCCCCn1cnc2c(O)nc(NCc3ccc(Cl)c(Cl)c3)nc21 [MMV1593542] | 68.6346 |
| Cc1cc(C)n2nc(C(=O)NS(=O)(=O)c3c(C)cccc3OC(F)(F)F)nc2n1 [MMV1782402] | 179.119 |
| Cn1cc(NC(=O)c2cc(NC(=O)c3ccc(/C=C/c4cnc5ccccc5c4)cc3)cn2C)cc1C(=O)NCCN1CCOCC1 [MMV1634391] | 70.2948 |
| Cc1onc(-c2ccccc2)c1-c1ccc(S(N)(=O)=O)cc1 [MMV002260] | 84.2251 |
| O=C(Nc1cccc(C2=NCCN2)c1)c1ccc(-c2ccc(C(=O)Nc3cccc(C4=NCCN4)c3)cc2)cc1 [MMV1580853] | 3.841 |
